Common to all, as to type: in vivo
Test [1] concerns LOLPE. In words: Post-emergence biological efficacy. The note with it: Lolium perenne, 312 h, evaluated after 13 days, read-out: damage to plant (100=total damage to plant; 0=no damage to plant). The procedure, abridged: (§1)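 Pot-grown plants were raised 14 days in a glasshouse (24/19 °C day/night, 16 h light), then sprayed post-emergence with an aqueous dilution of a 50 g/l IF50 formulation stock in 0.2% Genapol XO80. They were kept at 24/18 °C, 15 h light, 50% humidity, and visually scored for damage after 13 days (0 = none, 100 = total).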

Test [2] has as its system IPOHE. The test is described as follows: Post-emergence biological efficacy. The note with it: Ipomoea hederacea, 312 h, evaluated after 13 days, read-out: damage to plant (100=total damage to plant; 0=no damage to plant). An outline of the steps:
as §1

Test [3] relates to DIGSA. In words: Post-emergence biological efficacy. The note with it: Digitaria sanguinalis, 312 h, evaluated after 13 days, read-out: damage to plant (100=total damage to plant; 0=no damage to plant). The procedure, abridged: as §1
Test [4] concerns SETFA. In words: Post-emergence biological efficacy. The following applies: Setaria faberi, 312 h, evaluated after 13 days, read-out: damage to plant (100=total damage to plant; 0=no damage to plant). An outline of the steps:
as §1

Test [5] relates to EPHHL. The test is described as follows: Post-emergence biological efficacy. The following applies: Euphorbia heterophylla, 312 h, evaluated after 13 days, read-out: damage to plant (100=total damage to plant; 0=no damage to plant). The procedure, abridged: as §1
Test [6] deals with AMAPA. The test is described as follows: Post-emergence biological efficacy. The following applies: Amaranthus palmeri, 312 h, evaluated after 13 days, read-out: damage to plant (100=total damage to plant; 0=no damage to plant). An outline of the steps:
as §1

Test [7] relates to ELEIN. The test is described as follows: Post-emergence biological efficacy. The following applies: 312 h, evaluated after 13 days, read-out: damage to plant (100=total damage to plant; 0=no damage to plant). The procedure, abridged:
as §1

In test [8] the test system is CHEAL. The test is described as follows: Post-emergence biological efficacy. The following applies: Chenopodium album, 312 h, evaluated after 13 days, read-out: damage to plant (100=total damage to plant; 0=no damage to plant). An outline of the steps:
as §1

The test system of test [9] is ECHCG. In words: Post-emergence biological efficacy. The note with it: Echinochloa crus-galli, 312 h, evaluated after 13 days, read-out: damage to plant (100=total damage to plant; 0=no damage to plant). An outline of the steps: as §1
Test [10] deals with LOLPE. The test is described as follows: Pre-emergence biological efficacy. The note with it: Lolium perenne, 312 h, evaluated after 13 days, read-out: damage to plant (100=total damage to plant; 0=no damage to plant). The procedure, abridged: (§2)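 Pre-emergence spray applied one day after sowing in standard soil, compound delivered from an IF50-based emulsifiable formulation diluted in 0.2% Genapol XO80. Plants then grew under glasshouse conditions for 13 days before damage was rated on a 0 (none) to 100 (total) scale.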

The subject of test [11] is IPOHE. In words: Pre-emergence biological efficacy. The following applies: Ipomoea hederacea, 312 h, evaluated after 13 days, read-out: damage to plant (100=total damage to plant; 0=no damage to plant). An outline of the steps: as §2
In test [12] the test system is SETFA. The test is described as follows: Pre-emergence biological efficacy. The note with it: Setaria faberi, 312 h, evaluated after 13 days, read-out: damage to plant (100=total damage to plant; 0=no damage to plant). An outline of the steps: as §2
For test [13], the system named is EPHHL. In words: Pre-emergence biological efficacy. The following applies: Euphorbia heterophylla, 312 h, evaluated after 13 days, read-out: damage to plant (100=total damage to plant; 0=no damage to plant). The procedure, abridged: as §2
Test [14] relates to AMAPA. In words: Pre-emergence biological efficacy. The note with it: Amaranthus palmeri, 312 h, evaluated after 13 days, read-out: damage to plant (100=total damage to plant; 0=no damage to plant). The procedure, abridged:
as §2

In test [15] the test system is ECHCG. The test is described as follows: Pre-emergence biological efficacy. The note with it: Echinochloa crus-galli, 312 h, evaluated after 13 days, read-out: damage to plant (100=total damage to plant; 0=no damage to plant). An outline of the steps:
as §2

As to `CCOC(=O)C1(C)CC(c2cc(-c3ncc(C)cc3Cl)c(F)cc2Cl)=NO1` (stereo not drawn) [Compound 1-175, Ethyl 3-[2-chloro-5-(3-chloro-5-methyl-2-pyridyl)-4-fluoro-phenyl]-5-methyl-4H-isoxazole-5-carboxylate], the pest or weed control at 250 g/ha is 90% in test [1]; 100% in [2]; 70% in [3]; 100% in [4]; 100% in test [5]; 100% in test [6]. Further, the pest or weed control at 250 g/ha in [7] turned out to be 70%; in [8], 100%; in test [9], 100%; in [10], 20%; in [11], 50%; in test [12], 80%. Besides, the pest or weed control at 250 g/ha came out at 60% in [13], 30% in test [14] and 60% in test [15].
In the case of `CCOC(=O)C1(C)CC(c2cc(-c3ncc(C(F)(F)F)nc3Cl)c(F)cc2Cl)=NO1` (stereo not drawn) [Compound 1-811, Ethyl 3-[2-chloro-5-[3-chloro-5-(trifluoromethyl)pyrazin-2-yl]-4-fluoro-phenyl]-5-methyl-4H-isoxazole-5-carboxylate], the pest or weed control at 250 g/ha in test [1] worked out at 70%; in test [2], 70%; in test [3], 40%; in [4], 100%; in test [5] it was 80%; in test [6] it was 80%. Further, the pest or weed control at 250 g/ha in test [7] was found to be 90%; in test [8], 60%; in [9], 50%; in [10], 10%; in test [11] it was 0%; in test [12] it was 50%. In addition, the values for the pest or weed control at 250 g/ha in [13], in test [14] and in test [15] were 100%, 100% and 70%, respectively.
Regarding `CCOC(=O)C1(C)CC(c2cc(-c3ncccc3Cl)c(F)cc2Cl)=NO1` (stereo not drawn) [Compound 1-127, Ethyl 3-[2-chloro-5-(3-chloro-2-pyridyl)-4-fluoro-phenyl]-5-methyl-4H-isoxazole-5-carboxylate], the pest or weed control at 250 g/ha amounted to 10% in test [1]; 100% in test [2]; 50% in test [3]; 100% in test [4]; 80% in [5]; 100% in test [6]. Also, the pest or weed control at 250 g/ha in [7] stood at 30%; in [8], 100%; in [9] it was 90%; in test [10], 20%; in test [11], 50%; in [12], 70%. Moreover, the pest or weed control at 250 g/ha was determined as 100% in [13], 40% in test [14] and 50% in test [15].
Take `CCOC(=O)C1(C)CC(c2cc(-c3ccc(C)nc3)c(F)cc2Cl)=NO1` (stereo not drawn) [Compound 1-283, Ethyl 3-[2-chloro-4-fluoro-5-(6-methyl-3-pyridyl)phenyl]-5-methyl-4H-isoxazole-5-carboxylate]: the pest or weed control at 250 g/ha in [1] came to 0%; in [2] it was 40%; in [3], 20%; in test [4], 20%; in test [5], 60%; in test [6], 70%. Besides, the pest or weed control at 250 g/ha in test [7] was determined as 0%; in [8] it was 30%; in [9] it was 10%; in test [10], 0%; in test [11], 0%; in [12], 0%. The pest or weed control at 250 g/ha was determined as 20% in test [13], 0% in test [14] and 0% in test [15].
`CCOC(=O)C1(C)CC(c2cc(-c3cc(C(F)(F)F)cnc3F)c(F)cc2Cl)=NO1` (stereo not drawn) [Compound 1-235, Ethyl 3-[2-chloro-4-fluoro-5-[2-fluoro-5-(trifluoromethyl)-3-pyridyl]phenyl]-5-methyl-4H-isoxazole-5-carboxylate]: the pest or weed control at 250 g/ha in [1] turned out to be 60%; in [2], 100%; in test [3] it was 70%; in test [4] it was 100%; in [5], 100%; in [6], 100%. For the same molecule, the pest or weed control at 250 g/ha in test [7] was 100%; in [8], 100%; in test [9], 60%; in test [10] it was 0%; in test [11] it was 60%; in test [12], 0%. For the same molecule, the values for the pest or weed control at 250 g/ha in test [13], in [14] and in [15] were 50%, 100% and 0%, respectively.
Regarding `CCOC(=O)C1(C)CC(c2cc(-c3ccc(C)cc3Cl)c(F)cc2Cl)=NO1` (stereo not drawn) [Compound 1-31, Ethyl 3-[2-chloro-5-(2-chloro-4-methyl-phenyl)-4-fluoro-phenyl]-5-methyl-4H-isoxazole-5-carboxylate], the pest or weed control at 250 g/ha in test [1] amounted to 20%; in test [2], 90%; in test [3] it was 30%; in test [4], 50%; in test [5], 80%; in [6], 100%. The pest or weed control at 250 g/ha in test [7] came out at 70%; in test [8], 100%; in [9], 30%; in test [10] it was 0%; in test [11], 0%; in test [12] it was 0%. Also, the pest or weed control at 250 g/ha worked out at 10% in test [13], 30% in test [14] and 0% in [15].
On to `CCOC(=O)C1(C)CC(c2cc(-c3nc(C)cnc3C)c(F)cc2Cl)=NO1` (stereo not drawn) [Compound 1-787, Ethyl 3-[2-chloro-5-(3,6-dimethylpyrazin-2-yl)-4-fluoro-phenyl]-5-methyl-4H-isoxazole-5-carboxylate], for which the pest or weed control at 250 g/ha in test [1] was 20%; in test [2] it was 50%; in test [3], 40%; in test [4], 40%; in test [5], 40%; in [6] it was 50%. In addition, the pest or weed control at 250 g/ha is 60% in test [7]; 60% in [8]; 40% in [9]; 20% in test [10]; 10% in test [11]; 20% in test [12]. For the same molecule, the pest or weed control at 250 g/ha in test [13] worked out at 10%; in [14] it was 10%; in test [15], 20%.
As to `CCOC(=O)C1(C)CC(c2cc(-c3ncc(C(F)F)cc3Cl)c(F)cc2Cl)=NO1` (stereo not drawn) [Compound 1-583, Ethyl 3-[2-chloro-5-[3-chloro-5-(difluoromethyl)-2-pyridyl]-4-fluoro-phenyl]-5-methyl-4H-isoxazole-5-carboxylate], the pest or weed control at 250 g/ha is 100% in test [1]; 100% in test [2]; 90% in [3]; 100% in [4]; 100% in [5]; 100% in test [6]. In addition, the pest or weed control at 250 g/ha in test [7] was 90%; in test [8] it was 100%; in test [9], 100%; in [10] it was 60%; in test [11], 60%; in [12], 90%. For the same molecule, the pest or weed control at 250 g/ha in test [13] worked out at 100%; in [14], 100%; in [15], 90%.
